The target of experiment [1] is T1, Tyrosine-protein phosphatase non-receptor type 11 (Homo sapiens, UniProt Q06124).
T1 sequence (Q06124 whole entry): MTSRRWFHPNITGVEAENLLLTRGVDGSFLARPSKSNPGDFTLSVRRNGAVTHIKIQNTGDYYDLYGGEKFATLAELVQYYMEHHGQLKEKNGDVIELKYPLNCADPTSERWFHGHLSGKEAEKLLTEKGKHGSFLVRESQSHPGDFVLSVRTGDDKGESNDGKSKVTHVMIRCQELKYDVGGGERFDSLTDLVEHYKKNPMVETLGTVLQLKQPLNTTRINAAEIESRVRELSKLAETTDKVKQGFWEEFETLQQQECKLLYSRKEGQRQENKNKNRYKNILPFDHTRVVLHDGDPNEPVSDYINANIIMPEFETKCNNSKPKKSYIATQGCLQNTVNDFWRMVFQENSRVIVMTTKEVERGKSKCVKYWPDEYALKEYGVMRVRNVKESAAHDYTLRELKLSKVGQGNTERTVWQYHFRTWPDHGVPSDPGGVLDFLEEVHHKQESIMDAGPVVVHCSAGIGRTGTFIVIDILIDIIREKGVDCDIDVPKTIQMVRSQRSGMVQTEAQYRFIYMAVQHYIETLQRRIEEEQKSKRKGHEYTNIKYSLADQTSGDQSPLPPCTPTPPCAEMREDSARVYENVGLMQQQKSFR
Kind of experiment: Inhibition of SHP2 (unknown origin).

The target of experiment [2] is T1, Tyrosine-protein phosphatase non-receptor type 11. The experiment in a line: Inhibition of wildtype SHP2 (unknown origin).
The target of experiment [3] is Tyrosine-protein phosphatase non-receptor type 11 (Homo sapiens, UniProt Q06124, F285S). Kind of experiment: Inhibition of SHP2 F285S mutant (unknown origin) using DiFMUP as substrate incubated for 1 hr followed by substrate addition measured after 30 mins by plate reader method.
Sequence of Tyrosine-protein phosphatase non-receptor type 11 (Homo sapiens, UniProt Q06124, F285S) (Q06124 2-593 F285S limits assumed): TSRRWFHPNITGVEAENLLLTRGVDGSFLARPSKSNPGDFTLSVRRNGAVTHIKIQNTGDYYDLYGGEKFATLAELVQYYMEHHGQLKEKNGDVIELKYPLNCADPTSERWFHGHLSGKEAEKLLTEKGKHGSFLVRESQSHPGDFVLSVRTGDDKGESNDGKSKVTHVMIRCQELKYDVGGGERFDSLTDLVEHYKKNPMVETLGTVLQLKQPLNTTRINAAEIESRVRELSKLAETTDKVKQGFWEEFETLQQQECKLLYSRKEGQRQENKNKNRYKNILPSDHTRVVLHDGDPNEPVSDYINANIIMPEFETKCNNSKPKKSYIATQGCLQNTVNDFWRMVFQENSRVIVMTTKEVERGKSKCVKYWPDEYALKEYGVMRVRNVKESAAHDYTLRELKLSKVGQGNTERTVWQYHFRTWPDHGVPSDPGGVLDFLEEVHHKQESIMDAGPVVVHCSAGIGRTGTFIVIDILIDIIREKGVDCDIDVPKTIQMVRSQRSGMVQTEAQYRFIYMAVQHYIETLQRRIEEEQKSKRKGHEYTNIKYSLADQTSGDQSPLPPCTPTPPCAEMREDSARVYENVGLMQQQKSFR
Experiment [4] addresses T1, Tyrosine-protein phosphatase non-receptor type 11. Kind of experiment: Degradation of wildtype SHP2 in human MV411 cells. As to conditions: mv4-11. The class given is cell-based.

As for `NC(=O)c1cc[n+](CC2=C(C(=O)O)N3C(=O)[C@@H](NC(=O)[C@@H](c4ccccc4)S(=O)(=O)O)[C@@H]3SC2)cc1`, in experiment [1], the concentration for half-maximal inhibition (IC50) was 16800 nM. This counts as double-digit micromolar.
In turn, `CC1(NCc2cn(CCOCCOCCOCCOCCNc3cccc4c3C(=O)N(C3CCC(=O)NC3=O)C4=O)nn2)CCN(c2cnc(-c3cccc(Cl)c3Cl)c(N)n2)CC1` (configuration not stated) yielded a half-maximal inhibitory concentration (IC50) in experiment [2] of 714 nM.
Compound `O=C(O)c1cc(O)c(=O)c2c(O)c(O)ccc2c1` [7-DESHYDROXYPYROGALLIN-4-CARBOXYLIC ACID] came in with an IC50 in experiment [1] of 2100 nM.
`Cc1nc(N2CCC3(CC2)CO[C@@H](C)[C@H]3N)cnc1-c1ccc(OCCOCCOCCCOCCCOCCCOCCCOCCOCCNCC(=O)COc2cccc3c2C(=O)N(C2CCC(=O)NC2=O)C3=O)c(Cl)c1Cl` (some centres not stated): in experiment [3], the IC50 was found to be 22.5 nM. This lies in the double-digit nanomolar range.
`COC(=O)c1cc(NC2=NC(=O)/C(=C/c3ccc(C)cc3)S2)ccc1O` registered a 50% inhibitory concentration (IC50) in experiment [1] of 50 nM.
With `C[C@@H]1OCC2(CCN(c3cnc(Sc4cccc(NC(=O)CCC(=O)NCCCOCCOCCOCCCNc5cccc6c5C(=O)N(C5CCC(=O)NC5=O)C6=O)c4Cl)c(N)n3)CC2)[C@@H]1N` (some centres not stated), the 50% degradation concentration (DC50) in experiment [4] is 6 nM.
As for `C=C/C(=C/C(=O)C[C@H](C)C[C@@H](C)CC[C@H](O)[C@H](C)C(=O)C[C@@H](O)[C@H](C)[C@@H](C)OC(=O)C[C@@H](O)/C(C(=O)O)=C(\C)C(=O)O)CC`, the 50% inhibitory concentration (IC50) in experiment [1] amounted to 29000 nM.

One may read the IC50 as the concentration at which inhibition is half-maximal. As usually defined, the DC50 is the concentration at which degradation of the target reaches its halfway point. Low values mean a more potent degrader, high ones a less potent degrader.
